Experimental data taken from patent US20240252716A1, “SELF-ASSEMBLING NANOFIBROUS ULTRASHORT PEPTIDE HYDROGELS FOR VASCULAR TISSUE ENGINEERING” (KING ABDULLAH UNIVERSITY OF SCIENCE AND TECHNOLOGY, priority 2021, published 2024).
[ ]: non-standard residue; d: D form. Cha = N[C@@H](CC1CCCCC1)C(=O)O

What was measured:
[1] = system: HUVEC cells; experiment: LIVE/DEAD staining viability of HUVEC cells cultured in peptide hydrogels; type: cell-based, Human; conditions: cultured within hydrogel; 24 h, 4 days and 7 days; versus Matrigel
Experimental: Viability of HUVEC cells were evaluated by using LIVE/DEAD® staining at different time points in order to assess the compatibility of peptide scaffolds with cells. In one embodiment, the viability of HUVEC cells was determined after 24 h, 4 days and 7 days of culturing within peptide scaffolds.
In FIG. 3, for living cells were stained in green by calcein AM, while dead cells were stained in red by ethidium homodimer (EthD-1).
HUVEC cells were seeded and treated with peptides according to the protocol described above. After 24 h of incubation, the media was removed and replaced with DPBS solution containing approximately […] calcein AM and […] ethidium homodimer-1 (LIVE/DEAD® Viability/Cytotoxicity Kit, Life Technologies®) and incubated for 30 min in dark. Before imaging, the staining solution was removed and fresh DPBS was added. Stained cells were imaged with ZEISS® fluorescent microscope.
(§1) HUVEC cells were encapsulated in peptide hydrogels in 96 well tissue culture plates. Peptide solution was added to the plate at 40 μL per well. HUVEC cells suspended in 2×PBS were added to each well at 40,000 cells/well and gently mixed. The final concentration of the peptide hydrogel was 1× after the addition of 2×PBS containing cells. […] At pre-determined time points, the 3D cell viability assay, live/dead assay and florescence staining were performed.

[2] = system: HUVECs; experiment: Cell attachment of HUVECs on coverslips coated with hydrogels or Matrigel; type: cell-based, Human; conditions: after 4 hours of culture
Experimental: Cell attachment was evaluated by seeding HUVECs on top of coverslips coated with Matrigel® (control) and different hydrogels. After incubation for 4 hours, efficient cell extension and adhesion in both control and hydrogels can be clearly seen, and also tube-like structure can be observed, as shown in FIG. 4. Furthermore, the number of cells attached was calculated for different scaffold used.

[3] = system: HUVEC cells; experiment: 3D cell proliferation assay (CellTiter-Glo, ATP production); type: cell-based, Human
Experimental: In one embodiment, HUVEC cells have higher proliferation cultured in peptides than in Matrigel®. Proliferation of cells cultured in both hydrogels and Matrigel® was evaluated by measuring the production of ATP after culturing for different period of time. The differences in ATP produced when cultured in different scaffolds was calculated.
HUVEC cells were encapsulated in peptide hydrogels in 96 well tissue culture plates. Peptide solution was added to the plate at 40 μL per well. HUVEC cells suspended in 2×PBS were added to each well at 40,000 cells/well and gently mixed. The final concentration of the peptide hydrogel was 1× after the addition of 2×PBS containing cells. Gelation occurred within 3-5 minutes and subsequently, the culture medium was added to the wells. At pre-determined time points, the 3D cell viability assay, live/dead assay and florescence staining were performed.
The CellTiter-Glo® luminescent 3D cell viability assay is a method to determine the number of viable cells in 3D hydrogels based on quantification of the ATP present, which signals the presence of metabolically active cells. After each time point, an equal amount of CellTiter-Glo® luminescent reagent was added to the same amount of media in each well. The contents were mixed for 5 minutes to digest the hydrogels and then incubated for 10 minutes. After incubation, the luminescence was recorded using a plate reader (PHERAstar® FS, Germany).

[4] = system: HUVECs; experiment: Cytoskeletal (actin) staining with rhodamine-phalloidin; type: cell-based, Human; conditions: 24 h of culture
Experimental: In one embodiment, HUVECs grown in peptide scaffolds maintain their normal morphology and functionality. […] In the present disclosure, the cytoskeleton organization of HUVECs grown in the nanofibers scaffolds was visualized by staining the actin of cells with rhodamine-phalloidin. Cell morphology and the organization of actin structures of HUVECs grown in different scaffolds were compared and shown in FIG. 7.
(§2) Immunostaining was performed after 24 h of culture. In brief, the cells were fixed with 4% paraformaldehyde solution for 30 minutes and incubated in a cold cytoskeleton buffer (3 mM MgCl2, 300 mM sucrose and 0.5% Triton X-100 in PBS solution) for 10 minutes to permeabilize the cell membranes. The permeabilised cells were incubated in blocking buffer solution (5% FBS, 0.1% Tween-20, and 0.02% sodium azide in PBS) for 30 minutes at 37° C., followed by incubation with rhodamine-phalloidin (1:300) for 1 hour at 37° C. In case of endothelial cell markers, the sample incubated with Mouse anti-Endothelial Cell CD146 ( 1/500), Rabbit anti-VWF ( 1/5000) or Mouse anti-CD31 ( 1/50) for 1 hour and followed by secondary antibody. Furthermore, the cells were incubated in DAPI for 5 minutes at room temperature to counterstain the nucleus. Finally, the cells were observed and imaged using a laser scanning confocal microscope (Zeiss® LSM 710 Inverted Confocal Microscope, Germany).

[5] = system: HUVECs; experiment: Endothelial cell marker expression (immunostaining); type: cell-based, Human; conditions: similar to that in Matrigel
Experimental: The functionality of HUVECs in different scaffolds was determined by the expression of universal endothelial cell markers, including CD34, CD146 and Von-Willebrand factor (vWF).
as §2

[6] = system: HUVECs; experiment: In vitro angiogenesis study (tube-like structure formation); type: cell-based, Human; conditions: for capillary-like structure formation by HUVECs: 2-6 hours of culture, no growth factors added to peptide scaffolds; for length of tube-like structure versus Matrigel: ImageJ, peptides without growth factor; for number of junctions of tube-like structure versus Matrigel: peptide hydrogels without growth factor, Matrigel with growth factors
Experimental: In one embodiment, HUVEC cells form tube-like structures when cultured in peptide hydrogels. In determining the effects of peptide scaffolds in facilitating the formation of the capillary-like structure formed by HUVEC cells, there was no addition of growth factors, after cells were plated on the surfaces of IIFK (SEQ ID NO. 1) and IIZK (SEQ ID NO. 2) scaffolds and Matrigel® (control). […] However, Matrigel® scaffold contains several growth factors that stimulate capillary-like structure formation rapidly. […] Tube length and diameter were evaluated using ImageJ software. […] In our study, no growth factors were added to the peptide scaffold.
Peptide hydrogel or Matrigel® were placed in 24 well plate, and human umbilical vein endothelial cells (HUVECs) 40,000 cells/well were added on top of peptide gel or Matrigel®. The amount of solutions in each well is about 200 μl. […] Cells were then investigated using inverted microscope, and images were analyzed by Image J using Angiogenesis Analyzer.

[7] = Peptide hydrogel preparation / gelation; type: physicochemical; conditions: water, then PBS to 1x final
Text: The solution-gel transition of both peptides (IIFK (SEQ ID NO. 1) and IIZK (SEQ ID NO. 2)) were induced by the addition of 1×PBS. Scanning electron microscopy (SEM) and transmission electron microscopy (TEM) examinations also confirmed the self-assembling nanofiber formations, as shown in FIGS. 1 and 2. The scale bars are 1 μm in FIGS. 1 and 200 nm in FIG. 2.
The tetramer self-assembling peptides Ac-IIZK (SEQ ID NO. 2)-NH2 (Ac-Ile-Val-Cha-Lys-NH2) and Ac-IIFK (SEQ ID NO. 1)-NH2 (Ac-Ile-Val-Phe-Lys-N H2) were manually synthesized by using solid phase peptide synthesis and purified to above 95% via HPLC. Amino acid and peptide content analysis were performed. Lyophilized peptide was dissolved in milliQ® water and vortexed to get a homogenous solution. Subsequently, 10×phosphate buffered saline at the final concentration of 1× was added to the peptide solution and vortexed shortly. Gelation occurred within few seconds in IIZK (SEQ ID NO. 2) at I mg/mL and IIFK (SEQ ID NO. 1) at 2 mg/mL peptide concentration.
as §1, with “mixed.” for “mixed. The final concentration of the peptide hydrogel was 1× after the addition of 2×PBS containing cells.”

Substance | viability of HUVEC cells (LIVE/DEAD staining) compared to Matrigel [1] | number of attached cells versus Matrigel [2] | ATP production by HUVEC cells versus Matrigel ([3]; after 24 h of culture) | ATP production by HUVEC cells versus Matrigel ([3]; after 7 day of culture) | cell morphology and actin organization [4] | expression of endothelial cell markers CD34, CD146 and vWF [5] | capillary-like structure formation by HUVECs [6] | length of tube-like structure versus Matrigel [6] | number of junctions of tube-like structure versus Matrigel [6] | peptide concentration at which gelation occurred within few seconds [7] [mg/mL]
Ac-Ile-Val-Phe-Lys-N H2 [IIFK] | higher viability | no significant difference | no significant difference | significantly higher | fibroblastic morphology | well expressed | formed capillary-like structure networks | no significant difference | comparable | 2
Ac-IV[Cha]K-NH2 [IIZK] | higher viability | no significant difference | no significant difference | significantly higher | fibroblastic morphology | well expressed | formed capillary-like structure networks | no significant difference | comparable | 
